Activity calls are given as the source filed them. The rule behind the calls is not given here.

For assay [1], the system named is SH-SY5Y. In words: Cytotoxicity against human SH-SY5Y cells at 10 uM after 4 days by DAPI staining method. Format: functional.
Assay [2] concerns SH-SY5Y. In words: Cytotoxicity against human SH-SY5Y cells at 50 uM after 4 days by DAPI staining method. It is filed as functional.
The test system of assay [3] is SH-SY5Y. The assay is described as follows: Induction of apoptosis in human SH-SY5Y cells assessed as DNA fragmentation at 50 uM after 4 days by Hoechst 33342 method. Format: functional, cell-based.
Assay [4] relates to SH-SY5Y. The assay is described as follows: Cytotoxicity against human SH-SY5Y cells after 4 days by DAPI staining method. Format: functional, cell-based.
Assay [5] in a line: Cytotoxicity against human PA-TU-8902 cells at 50 uM after 4 days by DAPI staining method relative to control. It is filed as functional.

`O=C(O)[C@H]1O[C@@H](O[C@H]2[C@H](Oc3cc(O)c4c(=O)cc(-c5ccc(O)c(O)c5)oc4c3)O[C@H](CO)[C@@H](O)[C@@H]2O)[C@H](O)[C@@H](O)[C@@H]1O`: the Activity in the assay with SH-SY5Y [1] is 75%; with SH-SY5Y [2], 75%; in the assay with SH-SY5Y [4], “Dose-dependent effect”; in assay [5], 20%. Also, the outcome with SH-SY5Y [3] was Active.

The record behind these values is ChEMBL document CHEMBL1152340, “Flavonoid glucuronides and a chromone from the aquatic macrophyte Stratiotes aloides” (2009).
